Test results from patent publication US11446267B2, “Nanoparticle compositions, methods of fabrication, and use for drug delivery” (DIGNITY HEALTH, priority 2017, dated 2022).

Experiments:
MAPK signaling = MAPK signaling after direct injection into the striatum; assay type: in vivo; details: injected directly into the striatum of healthy mice
[1] = cited from earlier work
[2] = in vivo; cited from earlier work
RARα = target: T1, RARα (Homo sapiens, UniProt P10276); details: cited from earlier work
T1 sequence (P10276 1-462): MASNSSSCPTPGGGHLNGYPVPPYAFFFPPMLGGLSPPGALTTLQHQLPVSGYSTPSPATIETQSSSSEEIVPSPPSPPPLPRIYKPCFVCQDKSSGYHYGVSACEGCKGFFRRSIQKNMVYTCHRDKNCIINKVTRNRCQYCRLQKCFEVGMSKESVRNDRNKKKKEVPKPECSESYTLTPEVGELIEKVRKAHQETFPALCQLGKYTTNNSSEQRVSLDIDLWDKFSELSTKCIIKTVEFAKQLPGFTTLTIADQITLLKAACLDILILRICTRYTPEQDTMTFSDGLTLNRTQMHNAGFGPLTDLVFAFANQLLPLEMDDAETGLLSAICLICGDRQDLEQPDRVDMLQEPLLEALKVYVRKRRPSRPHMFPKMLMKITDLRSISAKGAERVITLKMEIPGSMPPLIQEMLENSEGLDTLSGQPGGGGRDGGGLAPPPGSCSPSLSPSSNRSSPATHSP

RARβ = target: T2, RARβ (Homo sapiens, UniProt P10826); details: cited from earlier work
T2 sequence (P10826 1-455): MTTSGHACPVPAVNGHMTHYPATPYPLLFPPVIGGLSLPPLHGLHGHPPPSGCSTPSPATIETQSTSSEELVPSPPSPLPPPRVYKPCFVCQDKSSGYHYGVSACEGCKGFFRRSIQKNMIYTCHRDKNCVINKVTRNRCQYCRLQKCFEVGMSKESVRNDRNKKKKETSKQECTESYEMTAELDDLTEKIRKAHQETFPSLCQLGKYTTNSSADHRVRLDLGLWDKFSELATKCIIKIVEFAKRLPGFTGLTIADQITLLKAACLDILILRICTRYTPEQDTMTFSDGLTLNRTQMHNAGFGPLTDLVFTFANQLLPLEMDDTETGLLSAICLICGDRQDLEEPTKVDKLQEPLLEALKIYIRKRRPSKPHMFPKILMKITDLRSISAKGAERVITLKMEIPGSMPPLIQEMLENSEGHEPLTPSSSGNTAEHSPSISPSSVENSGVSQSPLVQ

RXRs = details: cited from earlier work
primary motor neurons = details: oxidative injury and excitotoxicity; cited from earlier work
ALS patients = details: subset of ALS patients, phase III study; cited from earlier work
[3] = chronic administration; cited from earlier work

COc1ccc(-c2ccc3cc(C(=O)O)ccc3c2)cc1C12CC3CC(CC(C3)C1)C2 [Adapalene]
activation of MAPK signaling (MAPK signaling): equivalently activated MAPK signaling | solubility in water [1]: less than 1 μg/ml | clearance from the plasma [2]: rapidly cleared from the plasma | AC50 (RARα): 9.2 nM | AC50 (RARβ): 2.2 nM | interaction with RXRs (RXRs): does not interact | cell death (primary motor neurons): reduced cell death

CC1=NN(c2ccccc2)C(=O)C1 [Edaravone]
disease progression (ALS patients): reduce disease progression

C=C(c1ccc(C(=O)O)cc1)c1cc2c(cc1C)C(C)(C)CCC2(C)C [bexarotene]
motor impairments, lifespan, neuroprotection [3]: reduced motor impairments, increased lifespan and was neuroprotective
